Results taken from ChEMBL document CHEMBL4420076, “Amylin and calcitonin receptor agonist” (2017).
≈ marks a conversion by molar mass, not a printed value. Square brackets hold non-standard residues; d marks the D form. Peptide text beside a SMILES is read from it. * marks the point of attachment. ξ: configuration not given here. C18 diacid = O=C(O)CCCCCCCCCCCCCCCCC(=O)*; Ile(3ξ) = CCC(C)[C@H](N)C(=O)O

Legend:
[1] = Solubility in 100 mM bistrispropane buffer at pH 7.0 incubated for 18 hrs by UPLC analysis; format: physicochemical
[2] = Solubility in 100 mM glycylglycine buffer at pH 5.0 incubated for 18 hrs by UPLC analysis; format: physicochemical
[3] = Solubility in 100 mM glycylglycine buffer at pH 3.0 incubated for 18 hrs by UPLC analysis; format: physicochemical
[4] = Solubility in 100 mM bistrispropane buffer at pH 6.0 incubated for 18 hrs by UPLC analysis; format: physicochemical
[5] = Solubility in 100 mM bistrispropane buffer at pH 7.5 incubated for 18 hrs by UPLC analysis; format: physicochemical
[6] = Solubility in 100 mM bistrispropane buffer at pH 6.5 incubated for 18 hrs by UPLC analysis; format: physicochemical
[7] = Solubility in 100 mM bistrispropane buffer at pH 8.0 incubated for 18 hrs by UPLC analysis; format: physicochemical
[8] = target: T1, Amylin receptor AMY3; CALCR/RAMP3 (Homo sapiens, UniProt O60896+P30988); experiment: Agonist activity at human amylin receptor expressed in BHK570 cells co-expressing RAMP3 assessed as increase in intracellular cAMP concentration incubated for 3 hrs in absence of albumin by CRE luciferase reporter gene assay; format: functional, cell-based
T1 sequence (P30988 whole entry): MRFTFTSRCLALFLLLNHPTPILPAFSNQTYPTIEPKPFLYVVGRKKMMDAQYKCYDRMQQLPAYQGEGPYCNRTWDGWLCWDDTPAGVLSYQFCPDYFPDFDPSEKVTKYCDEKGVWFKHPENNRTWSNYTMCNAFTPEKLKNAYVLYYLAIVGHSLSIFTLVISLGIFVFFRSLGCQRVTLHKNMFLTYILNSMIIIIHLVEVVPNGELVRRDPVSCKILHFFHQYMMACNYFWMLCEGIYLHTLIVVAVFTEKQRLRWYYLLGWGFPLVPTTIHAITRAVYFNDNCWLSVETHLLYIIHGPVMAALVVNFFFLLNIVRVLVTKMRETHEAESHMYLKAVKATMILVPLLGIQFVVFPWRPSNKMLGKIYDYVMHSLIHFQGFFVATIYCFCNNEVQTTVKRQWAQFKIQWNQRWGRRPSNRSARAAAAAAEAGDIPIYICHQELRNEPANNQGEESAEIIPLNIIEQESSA
T1 sequence (O60896 whole entry): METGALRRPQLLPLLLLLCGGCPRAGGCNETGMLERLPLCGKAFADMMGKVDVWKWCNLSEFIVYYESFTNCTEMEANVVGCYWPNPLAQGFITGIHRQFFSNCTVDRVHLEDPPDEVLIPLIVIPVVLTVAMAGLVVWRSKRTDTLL

Calcitonin receptor = target: T2, Calcitonin receptor (Homo sapiens, UniProt P30988); experiment: Agonist activity at human calcitonin receptor expressed in BHK570 cells assessed as increase in intracellular cAMP concentration incubated for 3 hrs in absence of albumin by CRE luciferase reporter gene assay; format: functional, cell-based
T2 sequence (P30988 whole entry): T1 sequence (P30988 whole entry)

[9] = Solubility in 100 mM glycylglycine buffer at pH 4.0 incubated for 18 hrs by UPLC analysis; format: physicochemical

Row | SMILES | solubility at 18 h [1] [µM] | solubility at 18 h [2] [µM] | solubility at 18 h [3] [µM] | solubility at 18 h [4] [µM] | solubility at 18 h [5] [µM] | solubility at 18 h [6] [µM] | solubility at 18 h [7] [µM] | EC50 [8] [nM] | EC50 (Calcitonin receptor) [nM] | solubility at 18 h [9] [µM]
1 | CC[C@@H](C)[C@H](NC(=O)[C@H](C)NC(=O)[C@@H](NC(=O)[C@H](CO)NC(=O)[C@@H](NC(=O)[C@H](CCC(=O)O)NC(=O)[C@H](CO)NC(=O)[C@H](C)NC(=O)[C@H](CCC(=O)O)NC(=O)CCCCCCCCCCCCCCCCC(=O)O)[C@H](C)CC)[C@@H](C)O)C(=O)N[C@@H](CC(C)C)C(=O)NCC(=O)N[C@@H](CCCNC(=N)N)C(=O)N[C@@H](CC(C)C)C(=O)N[C@@H](CO)C(=O)N[C@@H](C)C(=O)N[C@@H](CCC(=O)O)C(=O)N[C@@H](CC(C)C)C(=O)N[C@@H](Cc1cnc[nH]1)C(=O)N[C@@H](CCC(=O)O)C(=O)N[C@@H](CC(C)C)C(=O)N[C@@H](C)C(=O)N[C@H](C(=O)N[C@@H](CC(C)C)C(=O)N1CCC[C@H]1C(=O)N[C@@H](CCCNC(=N)N)C(=O)N[C@H](C(=O)N[C@@H](CCC(=O)O)C(=O)N[C@H](C(=O)NCC(=O)N1CCC[C@H]1C(=O)N[C@@H](CCC(=O)O)C(=O)N[C@@H](CO)C(=O)N1CCC[C@H]1C(N)=O)[C@@H](C)O)[C@@H](C)O)[C@@H](C)O | ≥ 200 | ≥ 200 | ≥ 200 | ≥ 200 | ≥ 200 | ≥ 200 | ≥ 200 | – | – | –
2 | CC(C)C[C@H](NC(=O)[C@H](CCCNC(=N)N)NC(=O)CNC(=O)[C@H](CC(C)C)NC(=O)[C@@H](NC(=O)[C@H](C)NC(=O)[C@@H](NC(=O)[C@H](CO)NC(=O)[C@H](CC(C)C)NC(=O)[C@H](CCC(=O)O)NC(=O)[C@H](CO)NC(=O)[C@H](C)NC(=O)CC[C@H](NC(=O)CCCCCCCCCCCCCCCCCCC(=O)O)C(=O)O)[C@@H](C)O)C(C)C)C(=O)N[C@@H](CO)C(=O)N[C@@H](CCC(N)=O)C(=O)N[C@@H](CCC(=O)O)C(=O)N[C@@H](CC(C)C)C(=O)N[C@@H](Cc1cnc[nH]1)C(=O)N[C@@H](CCC(=O)O)C(=O)N[C@@H](CC(C)C)C(=O)N[C@@H](CCC(N)=O)C(=O)N[C@H](C(=O)N[C@@H](Cc1ccc(O)cc1)C(=O)N1CCC[C@H]1C(=O)N[C@@H](CCCNC(=N)N)C(=O)N[C@H](C(=O)N[C@@H](CCC(=O)O)C(=O)N[C@H](C(=O)NCC(=O)N[C@@H](CO)C(=O)NCC(=O)N[C@H](C(=O)N[C@@H](Cc1ccc(O)cc1)C(N)=O)[C@@H](C)O)[C@@H](C)O)[C@@H](C)O)[C@H](C)O | ≥ 200 | 7 (≈ 27.6 µg/mL) | ≥ 200 | ≥ 200 | ≥ 200 | ≥ 200 | ≥ 200 | – | – | –
3 | CC[C@H](C)[C@H](NC(=O)[C@H](C)NC(=O)[C@@H](NC(=O)[C@H](CO)NC(=O)[C@@H](NC(=O)[C@H](CCC(=O)O)NC(=O)[C@H](CO)NC(=O)[C@H](C)NC(=O)[C@H](CCC(=O)O)NC(=O)CCCCCCCCCCCCCCCCC(=O)O)[C@@H](C)CC)[C@@H](C)O)C(=O)N[C@H](C(=O)NCC(=O)N[C@@H](CCCNC(=N)N)C(=O)N[C@@H](CC(C)C)C(=O)N[C@@H](CO)C(=O)N[C@@H](C)C(=O)N[C@@H](CCC(=O)O)C(=O)N[C@@H](CC(C)C)C(=O)N[C@@H](Cc1cnc[nH]1)C(=O)N[C@@H](CCC(=O)O)C(=O)N[C@@H](CC(C)C)C(=O)N[C@@H](C)C(=O)N[C@H](C(=O)N[C@@H](CC(C)C)C(=O)N1CCC[C@H]1C(=O)N[C@@H](CCCNC(=N)N)C(=O)N[C@H](C(=O)N[C@@H](CCC(=O)O)C(=O)N[C@H](C(=O)NCC(=O)N1CCC[C@H]1C(=O)N[C@@H](CCC(=O)O)C(=O)N[C@@H](CO)C(=O)N1CCC[C@H]1C(N)=O)[C@@H](C)O)[C@@H](C)O)[C@@H](C)O)[C@@H](C)CC ({C18 diacid}-EASEISTAIIGRLSAELHELATLPRTETGPESP-NH2) | ≥ 200 | ≥ 200 | ≥ 200 | ≥ 200 | ≥ 200 | ≥ 200 | ≥ 200 | 0.01 | 0.005 | –
4 | CC(C)C[C@H](NC(=O)[C@H](C)NC(=O)[C@H](C)NC(=O)[C@@H](NC(=O)[C@H](CO)NC(=O)[C@H](CC(C)C)NC(=O)[C@H](CCC(=O)O)NC(=O)[C@H](CO)NC(=O)[C@H](C)NC(=O)[C@H](CCC(=O)O)NC(=O)CCCCCCCCCCCCCCCCC(=O)O)[C@@H](C)O)C(=O)NCC(=O)N[C@@H](CCCNC(=N)N)C(=O)N[C@@H](CC(C)C)C(=O)N[C@@H](CO)C(=O)N[C@@H](C)C(=O)N[C@@H](CCC(=O)O)C(=O)N[C@@H](CC(C)C)C(=O)N[C@@H](Cc1cnc[nH]1)C(=O)N[C@@H](CCC(=O)O)C(=O)N[C@@H](CC(C)C)C(=O)N[C@@H](C)C(=O)N[C@H](C(=O)N[C@@H](Cc1ccc(O)cc1)C(=O)N1CCC[C@H]1C(=O)N[C@@H](CCCNC(=N)N)C(=O)N[C@H](C(=O)N[C@@H](CCC(=O)O)C(=O)N[C@H](C(=O)NCC(=O)N1CCC[C@H]1C(=O)N[C@@H](CCC(=O)O)C(=O)N[C@@H](CO)C(=O)N1CCC[C@H]1C(N)=O)[C@@H](C)O)[C@@H](C)O)[C@@H](C)O ({C18 diacid}-EASELSTAALGRLSAELHELATYPRTETGPESP-NH2) | – | – | – | – | – | – | – | 0.011 | 0.007 | –
5 | CCC(C)[C@H](NC(=O)[C@@H](NC(=O)[C@H](C)NC(=O)[C@@H](NC(=O)[C@H](CO)NC(=O)[C@H](CC(C)C)NC(=O)[C@H](CCC(=O)O)NC(=O)[C@H](CO)NC(=O)[C@H](C)NC(=O)[C@H](CCC(=O)O)NC(=O)CCCCCCCCCCCCCCCCC(=O)O)[C@@H](C)O)C(C)C)C(=O)NCC(=O)N[C@@H](CCCNC(=N)N)C(=O)N[C@@H](CC(C)C)C(=O)N[C@@H](CO)C(=O)N[C@@H](C)C(=O)N[C@@H](CCC(=O)O)C(=O)N[C@@H](CC(C)C)C(=O)N[C@@H](Cc1cnc[nH]1)C(=O)N[C@@H](CCC(=O)O)C(=O)N[C@@H](CC(C)C)C(=O)N[C@@H](C)C(=O)N[C@H](C(=O)N[C@@H](CC(C)C)C(=O)N1CCC[C@H]1C(=O)N[C@@H](CCCNC(=N)N)C(=O)N[C@H](C(=O)N[C@@H](CCC(=O)O)C(=O)N[C@H](C(=O)NCC(=O)N1CCC[C@H]1C(=O)N[C@@H](CCC(=O)O)C(=O)N[C@@H](CO)C(=O)N1CCC[C@H]1C(N)=O)[C@@H](C)O)[C@@H](C)O)[C@@H](C)O (stereo not given in full) ({C18 diacid}-EASELSTAV[Ile(3ξ)]GRLSAELHELATLPRTETGPESP-NH2) | ≥ 200 | ≥ 200 | ≥ 200 | ≥ 200 | ≥ 200 | ≥ 200 | ≥ 200 | – | – | ≥ 200
6 | CC(C)C[C@H](NC(=O)[C@H](CCCNC(=N)N)NC(=O)CNC(=O)[C@H](CC(C)C)NC(=O)[C@@H](NC(=O)[C@H](C)NC(=O)[C@@H](NC(=O)[C@H](CO)NC(=O)[C@@H](NC(=O)[C@H](CCC(=O)O)NC(=O)[C@H](CO)NC(=O)[C@H](C)NC(=O)[C@H](CCC(=O)O)NC(=O)CCCCCCCCCCCCCCCCC(=O)O)C(C)C)[C@@H](C)O)C(C)C)C(=O)N[C@@H](CO)C(=O)N[C@@H](C)C(=O)N[C@@H](CCC(=O)O)C(=O)N[C@@H](CC(C)C)C(=O)N[C@@H](Cc1cnc[nH]1)C(=O)N[C@@H](CCC(=O)O)C(=O)N[C@H](C(=O)N[C@@H](C)C(=O)N[C@H](C(=O)N[C@@H](CC(C)C)C(=O)N1CCC[C@H]1C(=O)N[C@@H](CCCNC(=N)N)C(=O)N[C@H](C(=O)N[C@@H](CCC(=O)O)C(=O)N[C@H](C(=O)NCC(=O)N1CCC[C@H]1C(=O)N[C@@H](CCC(=O)O)C(=O)N[C@@H](CO)C(=O)N1CCC[C@H]1C(N)=O)[C@@H](C)O)[C@@H](C)O)[C@@H](C)O)C(C)C ({C18 diacid}-EASEVSTAVLGRLSAELHEVATLPRTETGPESP-NH2) | ≥ 200 | – | – | ≥ 200 | ≥ 200 | ≥ 200 | ≥ 200 | 0.023 | 0.054 | –
